Measured values: PMC8946662, “Topical Bimiralisib Shows Meaningful Cutaneous Drug Levels in Healthy Volunteers and Mycosis Fungoides Patients but No Clinical Activity in a First-in-Human, Randomized Controlled Trial” (Cancers, 2022)
Where “and” joins values, the source holds several entries; their conditions need not be identical. Identical values can stand only once. Entries after “also recorded” stand apart in the source; their conditions may differ. Like-named read-outs stand apart in the source and are kept apart here.

Assays:
[1] = test system: early-stage MF target lesions; test: Clinical efficacy and pharmacodynamics in early-stage MF patients (CAILS, LSCI, OCT, multispectral imaging); assay type: in vivo, human
Procedure: (§1) The healthy volunteers in part A were administered 2 mg/cm^2 topical bimiralisib 2% on 400 cm^2 and 2 mg/cm^2 vehicle gel (serving as placebo with identical appearance) on 100 cm^2 skin of the back once daily by the study physician for 21 consecutive days, all administered at the study site. The 19 patients in part B were randomized 1:1, with 9 assigned to active and 10 to placebo. Randomization was predefined and performed in SAS version 9.4 (SAS Institute, Cary, NC, USA) by an independent statistician, using the SAS code for the parallel, two-treatment randomization with block size 2. The investigators, study personnel, sponsor and patients were blinded for allocated treatment throughout the study. Patients randomized in the treatment group applied topical bimiralisib 2%, once daily for 42 consecutive days, whereas the control group applied the vehicle gel. During the treatment period, the patients applied the bimiralisib or vehicle themselves at home after training and instructions on day 1. After 42 days, patients with ≥15% lesion improvement by CAILS could enter a blinded extension period in which treatment was continued until day 84.
(§2) At baseline of part B, one to three MF lesions (target lesions) were chosen to define a 150–200 cm^2 treatment area. Other MF lesions were left untreated in this study. Emollients, i.e., unguentum leniens, were distributed to patients and allowed for daily use on the skin, barring the target lesion(s). In part B, patient visits to the study site were scheduled for days −42 (run-in period), 1, 14, 28, 42 (end of treatment for all patients with <15% lesion improvement), 56 and 70 (end of study). Patients continuing with the extended treatment period had three extra visits on days 84 (end of treatment), 98 and 112 (end of study). Study details are provided in the assessment schedule (Table 1, Part B).
The primary endpoint was to evaluate the efficacy of bimiralisib versus placebo after 6 weeks of treatment by the change from baseline on Composite Assessment of Index Lesion Severity (CAILS). Clinical efficacy was assessed by the CAILS per target lesion, which is a score derived from individual scores for erythema, desquamation, plaque elevation, hypo- or hyperpigmentation and lesion size. Change from baseline of the combined CAILS score for all target lesions was used to calculate the objective response rate (ORR), i.e., the number of patients with complete response (CR: 100% clearance of target lesions from baseline) and partial response (PR: 50%–99% clearance) divided by the total number of patients in the respective treatment arm. […] Target lesions were extensively characterized by the assessment of skin perfusion with laser speckle contrast imaging (LSCI, PeriCam PSI NR system, Perimed, Sweden); skin morphology (blood flow) by optical coherence tomography (OCT, VivoSight, Michelson Diagnostics, UK); and erythema, roughness and edema by a multispectral camera (Antera 3D, Miravez, Ireland). The Scarlet Red app (ScarletRed Vision, Vienna, Austria) was used by patients at home for daily photo documentation and erythema quantification of a single target lesion.
All safety and statistical calculations were conducted with SAS version 9.4 for Windows (SAS Institute, Cary, NC, USA). PK parameter calculations were conducted with R version 4.0.3 for Windows (R Foundation for Statistical Computing, Vienna, Austria). All efficacy endpoints were analyzed for both the per protocol set and full analysis set, using a mixed model analysis of covariance (ANCOVA) with treatment, time and interaction of treatment by time as fixed factors; baseline as covariate; and subject as random factor.

[2] = design: method as in earlier work; conditions: plasma; cited from earlier work
[3] = test system: MF patients; test: Safety and tolerability in MF patients, part B; assay type: in vivo, human
Procedure: as §1
(§3) The secondary endpoint was to characterize local tolerability, safety and systemic exposure of bimiralisib by application site assessment using the Local Irritation Grading Scale (LIGS), adverse events (AEs), safety measurements and systemic pharmacokinetics.
(§4) The LIGS, a composite score of erythema, edema and desquamation, was used to assess the application site for safety or tolerability issues. In addition, safety and tolerability were evaluated by monitoring of AEs, physical examinations, vital signs, 12-lead ECGs and laboratory tests.

[4] = Cutaneous pharmacokinetics in skin punch biopsies of healthy volunteers (MALDI-MSI); assay type: in vivo, human; conditions: for Kp at 6 h / concentration at 6 h: human, topical; for Kp at 6 h: skin / plasma, 2 mg/cm^2, HVs; for concentration at 6 h: 2 mg/cm^2, HVs, day 21, 6 h after last application
Procedure: (§5) To investigate cutaneous pharmacokinetics in both HVs and patients, 3 mm skin punch biopsies of the treatment area were taken 6 h after the last topical application (day 21 in part A and day 42/84 in part B, respectively) and snap-frozen within 5 min after collection. Skin punch biopsies were shipped to ImaBiotech (MS Imaging Department, Lille, France) and analyzed using matrix-assisted laser desorption/ionization mass spectrometry imaging (MALDI-MSI) to spatially visualize pharmacokinetics of bimiralisib throughout the biopsy (Figure 1).
(§6) Figure 1 Method of obtaining cutaneous pharmacokinetics of bimiralisib in HVs and early-stage MF patients. (A) Bimiralisib gel 2% is applied topically, in part A at the back of six HVs and in part B at 1–3 target MF lesions. (B) A full-thickness skin punch biopsy was taken on day 21 and day 42/84, respectively, for HVs and MF patients. Skin punch biopsy was snap-frozen within 5 min, processed and cryosectioned. A single section was used for H&E staining. (C) MALDI matrix spraying. (D) Prepared samples were ionized by a laser beam. (E) Seven tesla Matrix-assisted laser desorption/ionization Fourier transform ion cyclotron resonance mass spectrometry imaging (7T-MALDI-FTICR MSI) acquisition. (F) Acquired data are analyzed and MALDI images are acquired.
(§7) Pharmacokinetics in tissue were analyzed with a validated 7T-MALDI-FTICR method with a lower limit of quantification of 62 ng/g of tissue and an assay sensitivity of […] (lower limit of detection). Pharmacokinetic data below the lower limit of quantification but above the limit of detection were interpolated and used in the analysis.

[5] = Systemic pharmacokinetics in plasma of healthy volunteers (UPLC-MS/MS), part A; assay type: in vivo, human; conditions: for AUC(0-t): topical, 2 mg/cm^2, HVs
Procedure: as §1
(§8) Blood samples for determination of bimiralisib levels in plasma of HVs were collected predose and at 1, 3, 6 and 24 h on days 7, 14 and 21 of application in part A. In part B, PK blood samples from patients were collected predose and at 1, 2, 3 and 6 h after dosing on day 42 (or on day 84 in case of participation in the extension study) of topical application.
(§9) Pharmacokinetics in plasma were analyzed with a validated ultra-performance liquid chromatography–tandem mass spectrometer method (UPLC-MS/MS) with a lower limit of quantification of 1.00 ng/mL of plasma.
(§10) Pharmacokinetic data were visualized for each subject and part separately. Due to differences in surface areas and applied doses between part A and part B, pharmacokinetic data were normalized to allow for the exploration of differences in exposure between HVs and patients after log transformation. For exploratory purposes, the applied dose was stratified by part and by number of lesions. The average concentration (Cavg) per subject was calculated based on all pharmacokinetic data of an individual combined.

[6] = test system: healthy volunteers; test: Safety and tolerability in healthy volunteers, part A; assay type: in vivo, human
Procedure: as §1, §3, §4

[7] = Cutaneous pharmacokinetics in skin punch biopsies of MF patients (MALDI-MSI); assay type: in vivo, human; conditions: for concentration at 6 h: human, skin punch biopsy, topical, 2 % gel, MF patients
Procedure: as §5, §6, §7

[8] = Systemic pharmacokinetics in plasma of early-stage MF patients (UPLC-MS/MS), part B; assay type: in vivo, human
Procedure: as §1, §2, §8, §9, §10

[9] = test system: CTCL patients; design: method as in PMID 29233821; conditions: oral, 19 CTCL patients; cited from earlier work
[10] = test system: CTCL cell lines; conditions: cited from earlier work

Q: For `Nc1cc(C(F)(F)F)c(-c2nc(N3CCOCC3)nc(N3CCOCC3)n2)cn1` [bimiralisib, 5-(4,6-Dimorpholino-1,3,5-triazin-2-yl)-4-(trifluoromethyl)pyridin-2-amine], which “efficacy by CAILS vs placebo, in words” value ([1]; 42 days once-daily treatment, p = 0.74 over time, p = 0.98 on day 42) is on record?
A: Its value is “No statistical significant difference; also recorded: no statistically significant clinical response”.

Q: And the “objective response rates between treatment groups” value ([1]; Table S7)?
A: Its value is “No substantial differences”.

Q: And the “subjects with ≥15% lesional response by CAILS” value ([1]; bimiralisib group (n = 9), day 42)?
A: Its value is “Three”.

Q: What about the clinical response classification ([1]; bimiralisib group, by CAILS) of the same compound?
A: Its clinical response classification is “stable disease”.

Q: What about the “difference in change from baseline in CAILS, bimiralisib vs placebo” value ([1]; day 42, once daily, 95% CI −3.3–3.4, p = 0.9820) of the same compound?
A: The value was 0.0.

Q: What about the “skin perfusion (LSCI), blood flow (OCT), erythema and roughness by 3D multispectral imaging” value ([1]; target lesions) of the same compound?
A: Its value is “no improvement”.

Q: What about the “human no observed adverse effect level (NOAEL Cmax)” value [2] of the same compound?
A: The value was 96.6 ng/mL.

Q: What about the “vital signs, laboratory analyses, ECG, urinalysis” value ([3]; both parts) of the same compound?
A: The value was “did not result in any clinically significant changes”.

Q: What about the overall tolerability ([3]; local reactions and systemic adverse events, HVs and MF patients) of the same compound?
A: The overall tolerability was “safe and well tolerated”.

Q: What about the “myalgia, patients” value ([3]; part B, bimiralisib group, 2/9) of the same compound?
A: The value was 22.2%.

Q: What about the “mild dryness at the application site, patients” value ([3]; part B, bimiralisib group, day 14) of the same compound?
A: The value was 1/9.

Q: And the “well-defined erythema at the application site, patients” value ([3]; part B, bimiralisib group, day 28)?
A: Its value is “one”.

Q: And the “patients with at least one AE” value ([3]; part B, bimiralisib group, six of nine patients)?
A: Its value is 66.7%.

Q: And the Kp at 6 h ([4]; read-out: mean ratio skin/plasma concentration)?
A: Its Kp at 6 h is 3050.

Q: What about the Kp at 6 h ([4]; read-out: ratio skin/plasma concentration, range) of the same compound?
A: The Kp at 6 h was 1210 to 7360.

Q: And the concentration at 6 h ([4]; skin punch biopsy (epidermis), epidermis, read-out: mean concentration in skin punch biopsies)?
A: The concentration at 6 h was 2540 ng/g.

Q: What about the concentration at 6 h ([4]; skin punch biopsy, read-out: concentration in skin punch biopsies, range) of the same compound?
A: Its concentration at 6 h is 1030 to 5700 ng/g.

Q: And the “exposure in papillary and reticular dermis, lower than in epidermis” value ([4]; part A skin punch biopsies)?
A: The value was “approximately 10 fold”.

Q: What about the “local exposure in epidermis relative to IC90 of pAKT and pS6” value ([4]; part A skin punch biopsies, IC90 from ref 31, 32) of the same compound?
A: Its value is “within range of the IC90 of pAKT and pS6”.

Q: What about the “mean Cavg in plasma” value ([5]; HVs, 2 mg/cm^2 gel 2% on 400 cm^2 once daily for 21 days) of the same compound?
A: The value was 0.96 ng/mL and 0.956 ng/mL.

Q: And the “time at which steady state is reached” value ([5]; HVs, topical gel once daily)?
A: Its value is less than 7 days.

Q: And the “plasma concentrations relative to human NOAEL” value ([5]; HVs, NOAEL 96.6 ng/mL)?
A: The value was “detectable but low and substantially below”.

Q: What about the Cmax ([5]; human, plasma, 2 mg/cm^2, HVs, topical once daily, read-out: highest Cmax in plasma) of the same compound?
A: Its Cmax is 2.74 ng/mL.

Q: And the AUC(0-t) ([5]; human, plasma, after 14 days of once-daily gel, read-out: highest AUC(0-24h))?
A: Its AUC(0-t) is 40 ng·h/mL.

Q: What about the AUC(0-t) ([5]; human, plasma, day 7, read-out: mean AUC(0-24 h)) of the same compound?
A: Its AUC(0-t) is 21.3 ng·h/mL.

Q: What about the AUC(0-t) ([5]; human, plasma, day 14, read-out: mean AUC(0-24 h)) of the same compound?
A: The AUC(0-t) was 22.2 ng·h/mL.

Q: And the “acne at the application site, subjects” value ([6]; bimiralisib area, n = 3)?
A: The value was 50%.

Q: And the “LIGS scores, bimiralisib vs placebo areas” value ([6]; full course)?
A: The value was “comparable”.

Q: And the “subjects with one or more adverse events” value ([6]; n = 6, each subject received both bimiralisib and placebo areas)?
A: Its value is 100%.

Q: What about the “dryness at the application site, subjects” value ([6]; reported for both placebo- and bimiralisib-treated areas) of the same compound?
A: The value was 83.3%.

Q: And the “exposure in papillary dermis, lower than in epidermis” value ([7]; Figure 5, single HV and single MF patient, MALDI-MSI)?
A: Its value is “approximately 10 fold”.

Q: What about the concentration at 6 h ([7]; day 42/84, 6 h after last application, read-out: mean cutaneous concentration in skin punch biopsies) of the same compound?
A: Its concentration at 6 h is 5300 ng/g.

Q: What about the concentration at 6 h ([7]; day 42/84, read-out: cutaneous concentration in skin punch biopsies, range) of the same compound?
A: The concentration at 6 h was 300 to 30200 ng/g.

Q: What about the “highest plasma concentration reached” value ([8]; MF patients) of the same compound?
A: The value was 18.70 ng/mL.

Q: And the “mean Cavg in plasma” value ([8]; MF patients, gel 2% once daily, day 42 or 84)?
A: Its value is 4.49 ng/mL.

Q: What about the “plasma concentrations relative to NOAEL” value ([8]; MF patients, NOAEL 96.6 ng/mL) of the same compound?
A: The value was “substantially below”.

Q: And the “mean ratio of normalized plasma concentration, MF patients vs HVs” value ([8]; normalized around 200 cm^2/(2 mg/cm^2))?
A: The value was 2.44 fold.

Q: And the “increase in normalized plasma concentration, MF patients compared to HVs” value ([8]; normalized for applied dose and area)?
A: The value was 144%.

Q: With `C[C@H](Nc1ncnc2nc[nH]c12)c1cc2cccc(Cl)c2c(=O)n1-c1ccccc1` [duvelisib] as the compound, how does the “complete responders by mSWAT” value [9] read?
A: The value was 3.

Q: What about the “partial responders by mSWAT” value [9] of the same compound?
A: Its value is 6.

Q: Which “antitumor activity in vitro” value [10] does the source give for `CO[C@H]1C[C@@H]2CC[C@@H](C)[C@@](O)(O2)C(=O)C(=O)N2CCCC[C@H]2C(=O)O[C@H]([C@H](C)C[C@@H]2CC[C@@H](OCCO)[C@H](OC)C2)CC(=O)[C@H](C)/C=C(\C)[C@@H](O)[C@@H](OC)C(=O)[C@H](C)C[C@H](C)/C=C/C=C/C=C/1C` [everolimus] here?
A: Its value is “has antitumor activity in vitro”.
